Assay results reported in BigSolDB 2.1.

Nc1ccc(Sc2ccc([N+](=O)[O-])cc2)cc1
Details | solubility (mole fraction)
in chlorobenzene, 291.25 K | 0.011
in chlorobenzene, 296.55 K | 0.0133
in chlorobenzene, 301.75 K | 0.0174
in chlorobenzene, 306.25 K | 0.019
in chlorobenzene, 311.35 K | 0.0225
in chlorobenzene, 316.65 K | 0.0275
in chlorobenzene, 321.25 K | 0.0314
in chloroform, 288.35 K | 0.0218
in chloroform, 293.55 K | 0.0264
in chloroform, 298.45 K | 0.0307
in chloroform, 303.65 K | 0.0361
in chloroform, 309.25 K | 0.0433
in dichloromethane, 287.45 K | 0.0244
in dichloromethane, 290.95 K | 0.0275
in dichloromethane, 293.75 K | 0.0299
in dichloromethane, 297.15 K | 0.0339
in ethyl acetate, 290.45 K | 0.0511
in ethyl acetate, 295.65 K | 0.0575
in ethyl acetate, 300.45 K | 0.063
in ethyl acetate, 305.65 K | 0.0709
in ethyl acetate, 309.15 K | 0.0766
in ethyl acetate, 313.65 K | 0.0836
in ethyl acetate, 318.25 K | 0.0911
in n-butanol, 292.55 K | 0.0018
in n-butanol, 297.75 K | 0.0024
in n-butanol, 302.65 K | 0.0031
in n-butanol, 307.65 K | 0.004
in n-butanol, 312.35 K | 0.005
in n-butanol, 317.55 K | 0.0061
in n-butanol, 322.25 K | 0.0081
in toluene, 289.75 K | 0.0183
in toluene, 294.55 K | 0.0214
in toluene, 299.65 K | 0.0241
in toluene, 304.75 K | 0.0283
in toluene, 309.35 K | 0.0337
in toluene, 314.55 K | 0.0385
in toluene, 319.35 K | 0.0448
in toluene, 324.65 K | 0.0506
